The record followed here is patent US20250205342A1, “IRAK DEGRADERS AND USES THEREOF” (Kymera Therapeutics, Inc., priority 2022, published 2025).

Test [1] deals with T1, IRAK4 (Homo sapiens, UniProt Q9NWZ3).
T1 sequence (Q9NWZ3 1-460): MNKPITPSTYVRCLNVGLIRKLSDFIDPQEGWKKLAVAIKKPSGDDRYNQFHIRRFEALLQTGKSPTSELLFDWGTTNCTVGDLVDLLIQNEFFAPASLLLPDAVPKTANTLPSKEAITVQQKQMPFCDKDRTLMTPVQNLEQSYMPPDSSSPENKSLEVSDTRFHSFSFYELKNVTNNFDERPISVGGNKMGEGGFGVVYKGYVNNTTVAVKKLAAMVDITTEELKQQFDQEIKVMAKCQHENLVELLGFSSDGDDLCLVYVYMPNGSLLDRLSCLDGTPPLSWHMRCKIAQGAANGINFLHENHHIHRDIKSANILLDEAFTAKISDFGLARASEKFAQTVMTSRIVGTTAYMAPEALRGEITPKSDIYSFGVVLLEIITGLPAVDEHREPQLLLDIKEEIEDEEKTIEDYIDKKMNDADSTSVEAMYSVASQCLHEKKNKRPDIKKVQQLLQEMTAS
Put plainly: IRAK4 degradation in OCI-LY10 (MSD, Meso Scale Discovery). The class given is cell-based. Also noted: endogenous in cells; host or cells: OCI-LY10. The settings on record: OCI-LY10 cells, 24 h. The protocol: Degradation of IRAK4 in OCI-LY10 was quantitatively measured using Meso Scale Discovery technology. OCI-LY10 cells were seeded in 96-well plates (Corning 3799) with a density of 300,000 cells per well in 100 μL fresh media. Compounds were then added to the assay plates with a final top concentration of 1 to 10 μM in a 1:3 dilution series with total of 8 doses. The assay plates were then incubated for 4 to 24 hours at 37° C. under 5% CO2. The assay plates were then centrifuged for 5 minutes and the cell pellets were treated with 100 μL/well RIPA lysis buffer (Boston BioProducts BP-115D) with proteinase inhibitors. To prepare MSD assay plates (Meso Scale Discovery Catalog number L15XA-3), the plates were coated with 2 ug/mL capture antibody (mouse Anti-IRAK4 antibody [2H9], ab119942) in PBS, at 40 μL/well. The plates were then incubated overnight at […], washed 3 times with 150 μL/well TBST buffer (Cell Signaling Technology, Catalog number 9997S) and blocked with 150 μL/well blocking buffer (Meso Scale Discovery Catalog number R^93BA-4). Cell lysates were then added to MSD assay plates and the plates were incubated at room temperature for 1 hour. The plates were then washed 3 times with 150 μL/well TBST buffer and 25 μL/well primary detection antibody (rabbit Anti-IRAK4 antibody [Y279], from Abcam. Catalog number ab32511, 1 μg/mL). The assay plates were then incubated at room temperature for 1 hour, washed 3 times with 150 μL/well TBST buffer and 25 μL/well secondary detection antibody, SULFO-TAG anti-rabbit antibody were added (anti-rabbit antibody from Meso Scale Discovery, Catalog number R^32AB-1, 1 μg/mL). The assay plates were then incubated at room temperature for 1 hour, washed 3 times with 150 μL/well TBST buffer, and 150 μL/well MSD reading buffer (Meso Scale Discovery catalog number R^92TC-2) was added. The plates were then analyzed by a MSD reader (Meso Scale Discovery, Model Quick Plex SQ 120). The data was then analyzed by software Prism 7.0 from GraphPad and the dose-depended IRAK4 degradation were fit using a three-parameter logistic equation to calculate DC50.
(§1) IRAK4 MSD degradation in OCI-LY10 results at 4 and 24 hrs and hPBMC at 20 hrs for compounds of the invention are presented in Table 3. The letter codes for IRAK4 DC50 include: A (<0.1 μM), B (0.1-1.0 μM), C(>1.0-10.0 μM), D (>10.0 μM or not determined).

Test [2] has as its target T1, IRAK4. In words: hPBMC IRAK4 degradation flow assay (monocytes). More on the design: endogenous in cells; host or cells: human PBMCs (monocytes, CD14 positive gate). Format: cell-based. The settings on record: CD14 positive monocytes, 20 h, read-out: hPBMC monocyte DC50 at 20 h. The procedure: In the hPBMC IRAK4 degradation flow assay, frozen PBMCs were thawed into RPMI with 10% FBS and allowed to recover. On the same day as thawed, PBMCs were plated in 96 well plate, 90 μL per well. Compound plates were prepared and a 10 point, 5-fold dilution was performed with a final DMSO concentration of 0.1%. Compound 10 μL per well was added, sealed and incubated at 37° C., 5% CO2 for 20 hours (for 4 hour treatment, compounds were prepared and added the following day). Following the treatment incubation period (day 1), 1.6% PFA was added to PBMC plate and placed on plate shaker for 30 seconds and incubated for 10 mins at room temperature. Cells were spun down and washed two times with PBS/0.5% BSA, aspirated to pellet and placed into −80° C. freezer until further processing for flow. On the flow run day, PBMC plates were thawed and samples were transferred to PCR plates. The pre-perm staining cocktail (CD3 Ax488/CD8 BUV805/CD14 BUV395/CD16/56 BV711/CD19 BV785) was added to samples and incubated for 30 minutes at room temperature. Samples were washed two times and permeabilized with methanol for 10 minutes at 4° C. Samples were washed two times and the post-perm staining cocktail (CD4 PE/IRAK4 Ax647 BD #560315) was added and incubated for 30 minutes at room temperature. Samples were washed two times with PBS/BSA and run on a BD LSRFortessa. Mononuclear cells are gated by SSCH/FSCH and single cells. Monocytes are then gated through CD14 positive gate and lymphocytes are gated through CD14 negative gate. To determine absolute DC50 and max degradation values, MFI values were normalized to DMSO max and 20 hour 10 µM min control. Twenty hour dose curves were calculated using a 4 parameter logistic regression curve fit, no constraints (Top doses were removed if hook effects were observed and the bottom was constrained to 0).
as §1

Where only a bound is given, the exact number is not on record here.

With `CCOC(=O)Cn1cc(NC(=O)c2cc(CCCNC[C@H]3CC[C@H](n4cc(NC(=O)c5cnn6ccc(N7C[C@H]8C[C@@H]7CO8)nc56)c(C(F)F)n4)CC3)cc(-c3cccnc3)c2)ccc1=O` [Compound I-83], the DC50 on IRAK4 [1] and on IRAK4 [2] was greater than 10 µM each time.
In the case of `CCOC(=O)Cn1cc(NC(=O)[C@H]2CCCN(c3cncc(OCCNC[C@H]4CC[C@H](n5cc(NC(=O)c6cnn7ccc(N8C[C@H]9C[C@@H]8CO9)nc67)c(C(F)F)n5)CC4)c3)C2)ccc1=O` [Compound I-48], the values for the DC50 at IRAK4 [1] and at IRAK4 [2] were greater than 10 µM and 1 to 10 µM, respectively.
As for `COc1cc(-c2ccc(F)c(CCCCCCCCCNC[C@H]3CC[C@H](n4cc(NC(=O)c5cnn6ccc(N7C[C@H]8C[C@@H]7CO8)nc56)c(C(F)F)n4)CC3)c2)ccc1C(=O)Nc1ccc(=O)n(CC(=O)O)c1` [Compound I-65], the DC50 on IRAK4 [1] and at IRAK4 [2] was greater than 10 µM in each case.
In the case of `CCOC(=O)Cn1cc(NC(=O)c2cccc(-c3cncc(CCCCCCCCCNC[C@H]4CC[C@H](n5cc6cc(NC(=O)c7cccc(C(F)(F)F)n7)c(C(C)(C)O)cc6n5)CC4)c3)c2)ccc1=O` [Compound I-88, Ethyl 2-[5-[[3-[5-[9-[4-[6-(1-hydroxy-1-methyl-ethyl)—5-[[6-(trifluoromethyl)pyridine-2-carbonyl]amino]indazol-2-yl]cyclohexyl]methylamino]nonyl]-3-pyridyl]benzoyl]amino]-2-oxo-1-pyridyl acetate], the DC50 lay within 1 to 10 µM on IRAK4 [1] and 0.1 to 1 µM on IRAK4 [2].
Take `CCOC(=O)Cn1cc(NC(=O)[C@H]2CCCN(c3cncc(OCCOCCOCCOCCOCCNC[C@H]4CC[C@H](n5cc6cc(NC(=O)c7cccc(C(F)(F)F)c7)c(OC)cc6n5)CC4)c3)C2)ccc1=O` [Compound I-43]: the DC50 at IRAK4 [1] is greater than 10 µM; at IRAK4 [2], 1 to 10 µM.
The corresponding values for `CCOC(=O)Cn1cc(NC(=O)[C@H]2CCCN(c3cncc(NCCNC[C@H]4CC[C@H](n5cc6cc(NC(=O)c7cccc(C(F)(F)F)n7)c(OC)cc6n5)CC4)c3)C2)ccc1=O` [Compound I-14] are greater than 10 µM and greater than 10 µM.
`O=C(O)Cn1cc(NC(=O)[C@H]2CCCN(c3cncc(OCCCCNC[C@H]4CC[C@H](n5cc(NC(=O)c6cnn7ccc(N8C[C@H]9C[C@@H]8CO9)nc67)c(C(F)F)n5)CC4)c3)C2)ccc1=O` [Compound I-46]: the DC50 at IRAK4 [1] and on IRAK4 [2] was greater than 10 µM in each case.
With `CCOC(=O)Cn1cc(NC(=O)c2ccc(-c3ccc(F)c(CCCCCCCCCNC[C@H]4CC[C@H](n5cc6cc(NC(=O)c7cccc(C(F)(F)F)n7)c(C(C)(C)O)cc6n5)CC4)c3)cc2OC)ccc1=O` [Compound I-64], the values for the DC50 on IRAK4 [1] and at IRAK4 [2] were 1 to 10 µM and greater than 10 µM, respectively.
For `COc1cc2nn([C@H]3CC[C@H](CNCCCCCCc4cncc(N5CCC[C@H](C(=O)Nc6ccc(=O)n(CC(=O)O)c6)C5)c4)CC3)cc2cc1NC(=O)c1cccc(C(F)(F)F)n1` [Compound I-24], the DC50 is greater than 10 µM on IRAK4 [1] and 0.1 to 1 µM at IRAK4 [2].
As to `CC(C)(O)c1cc2nn([C@H]3CC[C@H](CNCCCCCCn4ccc5c(C(=O)Nc6ccc(=O)n(CC(=O)O)c6)cccc54)CC3)cc2cc1NC(=O)c1cccc(C(F)(F)F)n1` [Compound I-58], the DC50 on IRAK4 [1] and on IRAK4 [2] was greater than 10 µM throughout.
As to `CCOC(=O)Cn1cc(NC(=O)c2cccc3c2ccn3CCCCCCCCCNC[C@H]2CC[C@H](n3cc(NC(=O)c4cnn5ccc(N6C[C@H]7C[C@@H]6CO7)nc45)c(C(F)F)n3)CC2)ccc1=O` [Compound I-73], the DC50 on IRAK4 [1] and at IRAK4 [2] was greater than 10 µM each time.
With `COc1cc2nn([C@H]3CC[C@H](CN(C)CC4CCN(c5cncc(N6CCCC(C(=O)Nc7ccc(=O)n(CC(=O)O)c7)C6)c5)CC4)CC3)cc2cc1NC(=O)c1cccc(C(F)(F)F)n1` (stereo partly drawn) [Compound I-19], the DC50 on IRAK4 [1] and on IRAK4 [2] was greater than 10 µM in each case.
For the compound `CC(C)(O)c1cc2nn([C@H]3CC[C@H](CNCCCCCCc4cncc(-c5cccc(C(=O)Nc6ccc(=O)n(CC(=O)O)c6)c5)c4)CC3)cc2cc1NC(=O)c1cccc(C(F)(F)F)n1` [Compound I-94], the results for the DC50 on IRAK4 [1] and at IRAK4 [2] were 1 to 10 µM and greater than 10 µM, respectively.
On to `O=C(O)Cn1cc(NC(=O)[C@H]2CCCN(c3cncc(CCCCNC[C@H]4CC[C@H](n5cc(NC(=O)c6cnn7ccc(N8C[C@H]9C[C@@H]8CO9)nc67)c(C(F)F)n5)CC4)c3)C2)ccc1=O` [Compound I-21], for which the DC50 on IRAK4 [1] was greater than 10 µM; at IRAK4 [2], 1 to 10 µM.
For `CCOC(=O)Cn1cc(NC(=O)[C@H]2CCCN(c3cncc(CCCCNC[C@H]4CC[C@H](n5cc6cc(NC(=O)c7cccc(C(F)(F)F)n7)c(OC)cc6n5)CC4)c3)C2)ccc1=O` [Compound I-31], the DC50 at IRAK4 [1] and at IRAK4 [2] was greater than 10 µM in each case.
As for `CCOC(=O)Cn1cc(NC(=O)[C@H]2CCCN(c3cncc(C#CCOC4CCN(C[C@H]5CC[C@H](n6cc(NC(=O)c7cnn8ccc(N9C[C@H]%10C[C@@H]9CO%10)nc78)c(C(F)F)n6)CC5)CC4)c3)C2)ccc1=O` [Compound I-23], the DC50 is greater than 10 µM at IRAK4 [1] and 1 to 10 µM at IRAK4 [2].
Consider `CCOC(=O)Cn1cc(NC(=O)c2cccc(-c3cncc(CCCCCCCCCNC[C@H]4CC[C@H](n5cc(NC(=O)c6cnn7ccc(N8C[C@H]9C[C@@H]8CO9)nc67)c(C(F)F)n5)CC4)c3)c2)ccc1=O` [Compound I-89], for which the DC50 on IRAK4 [1] and at IRAK4 [2] was 1 to 10 µM throughout.
For `CC(C)(O)c1cc2nn([C@H]3CC[C@H](CNCCCc4cncc(-c5cccc(C(=O)Nc6ccc(=O)n(CC(=O)O)c6)c5)c4)CC3)cc2cc1NC(=O)c1cccc(C(F)(F)F)n1` [Compound I-86], the 50% degradation concentration (DC50) on IRAK4 [1] and on IRAK4 [2] was greater than 10 µM each time.
As for `COc1cc2nn([C@H]3CC[C@H](CN4CCC(OCC#Cc5cncc(N6CCC[C@H](C(=O)Nc7ccc(=O)n(CC(=O)O)c7)C6)c5)CC4)CC3)cc2cc1NC(=O)c1cccc(C(F)(F)F)n1` [Compound I-9], the DC50 on IRAK4 [1] is greater than 10 µM; on IRAK4 [2], 0.1 to 1 µM.
With `CCOC(=O)Cn1cc(NC(=O)c2ccc(-c3ccc(F)c(CCCCCCCCCNC[C@H]4CC[C@H](n5cc(NC(=O)c6cnn7ccc(N8C[C@H]9C[C@@H]8CO9)nc67)c(C(F)F)n5)CC4)c3)cc2OC)ccc1=O` [Compound I-66], the 50% degradation concentration (DC50) is 1 to 10 µM on IRAK4 [1] and greater than 10 µM at IRAK4 [2].
For `CCOC(=O)Cn1cc(NC(=O)c2cc(CCCCCCNC[C@H]3CC[C@H](n4cc5cc(NC(=O)c6cccc(C(F)(F)F)n6)c(C(C)(C)O)cc5n4)CC3)cc(-c3cccnc3)c2)ccc1=O` [Compound I-95], the DC50 at IRAK4 [1] and on IRAK4 [2] was greater than 10 µM throughout.

For orientation: DC50 means the concentration at which degradation of the target reaches its halfway point.
